The supplement of paper PMC10307832

How the values were obtained:
Experiment in all cases: relative viability (nuclei count vs DMSO), 5 days (fraction); higher = more cells survive
CUDC-101 + Palbociclib = compound: C#Cc1cccc(Nc2ncnc3cc(OC)c(OCCCCCCC(=O)NO)cc23)c1 [CUDC-101] + CC(=O)c1c(C)c2cnc(Nc3ccc(N4CCNCC4)cn3)nc2n(C2CCCC2)c1=O [Palbociclib] (partner 0.5 µM)
In short: (§1)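 A single step with final 0.05% Triton X-100, 1% formaldehyde and 1 ug/ml Hoechst fixed the cells and stained nuclei 5 days after treatment. Lung cancer cell lines in 1536-well plates had been treated by pin tool the day after seeding with one drug alone or a fixed anchor-drug dose plus five library-drug doses (not always all listed) in √10 steps, and nuclei were counted on 4× images. Relative viability is the ratio of nuclei in treated wells to nuclei in vehicle wells, taken as the median of duplicate plates.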

Vandetanib + AZD7762 = compound: COc1cc2/c(=N/c3ccc(Br)cc3F)nc[nH]c2cc1OCC1CCN(C)CC1 [Vandetanib] + NC(=O)Nc1cc(-c2cccc(F)c2)sc1C(=O)N[C@H]1CCCNC1 [AZD7762] (partner 0.2 µM)
In short: as §1

[1] = compound: C1=CC=C2C(=C1)N=C(S2)C(C#N)C3=NC(=NC=C3)NCCC4=CN=CC=C4 + CC1(C)CCC(c2ccc(Cl)cc2)=C(CN2CCN(c3ccc(C(=O)NS(=O)(=O)c4ccc(N[C@H](CCN5CCOCC5)CSc5ccccc5)c(S(=O)(=O)C(F)(F)F)c4)cc3)CC2)C1 [Navitoclax] (partner 0.5 µM)
In short: as §1

NVP-TAE684 + Trametinib = compound: COc1cc(N2CCC(N3CCN(C)CC3)CC2)ccc1Nc1ncc(Cl)c(Nc2ccccc2S(=O)(=O)C(C)C)n1 [NVP-TAE684] + CC(=O)Nc1cccc(-n2c(=O)n(C3CC3)c(=O)c3c(Nc4ccc(I)cc4F)n(C)c(=O)c(C)c32)c1 [Trametinib] (partner 0.02 µM)
In short: as §1

Row | Cell Line | relative viability (CUDC-101 + Palbociclib; first compound 0.01 µM) | relative viability (CUDC-101 + Palbociclib; first compound 0.03162 µM) | relative viability (CUDC-101 + Palbociclib; first compound 0.1 µM) | relative viability (CUDC-101 + Palbociclib; first compound 0.3162 µM) | relative viability (CUDC-101 + Palbociclib; first compound 1 µM) | relative viability (Vandetanib + AZD7762; first compound 0.02 µM) | relative viability (Vandetanib + AZD7762; first compound 0.06325 µM) | relative viability (Vandetanib + AZD7762; first compound 0.2 µM) | relative viability (Vandetanib + AZD7762; first compound 0.6325 µM) | relative viability (Vandetanib + AZD7762; first compound 2 µM) | relative viability ([1]; first compound 0.005 µM) | relative viability ([1]; first compound 0.01581 µM) | relative viability ([1]; first compound 0.05 µM) | relative viability ([1]; first compound 0.1581 µM) | relative viability ([1]; first compound 0.5 µM) | relative viability (NVP-TAE684 + Trametinib; first compound 0.2 µM) | relative viability (NVP-TAE684 + Trametinib; first compound 0.6325 µM) | relative viability (NVP-TAE684 + Trametinib; first compound 2 µM)
1 | LC-2-ad | 0.501 | 0.553 | 0.477 | 0.482 | 0.451 | 0.807 | 0.809 | 0.766 | 0.756 | 0.69 | 0.358 | 0.497 | 0.447 | 0.581 | 0.351 | 0.881 | 0.926 | 0.669
2 | NCI-H1299 |  |  |  |  |  |  |  |  |  |  | 1.08 | 1.11 | 1.05 | 1.11 | 1.09 |  |  | 
3 | NCI-H2009 | 0.219 | 0.191 | 0.263 | 0.258 | 0.276 |  |  |  |  |  | 1.13 | 1.17 | 1.14 | 1.22 | 1.21 | 0.302 | 0.234 | 0.178
4 | NCI-H1395 | 0.599 | 0.632 | 0.595 | 0.725 | 0.578 | 0.404 | 0.399 | 0.427 | 0.418 | 0.434 | 1.23 |  | 1.03 | 1.08 | 1.22 | 1.09 | 1.15 | 0.944
5 | NCI-H1650 | 0.37 | 0.23 | 0.294 | 0.308 | 0.19 |  |  |  |  |  | 0.964 | 1.17 | 1.22 | 1.31 | 1.07 | 0.522 | 0.507 | 0.221
6 | NCI-H2085 | 0.438 | 0.468 | 0.47 | 0.463 | 0.466 | 0.941 | 0.944 | 0.951 | 0.857 | 0.946 | 0.946 | 1.09 | 1.09 | 1.15 | 0.981 | 0.579 | 0.503 | 0.4
7 | ABC-1 | 0.647 | 0.682 | 0.864 | 0.587 | 0.454 | 0.871 | 0.901 |  | 0.726 | 0.773 |  |  |  |  |  |  |  | 
8 | NCI-H650 | 0.402 | 0.365 | 0.302 | 0.374 | 0.29 | 1.01 | 1.02 | 0.976 | 0.941 | 0.905 |  |  |  |  |  | 1.08 | 0.951 | 0.726
9 | IA-LM |  |  |  |  |  |  |  |  |  |  |  | 0.816 | 0.817 | 0.826 | 0.568 |  |  | 
10 | NCI-H520 | 0.227 | 0.199 | 0.277 | 0.32 | 0.225 |  |  |  |  |  | 0.929 | 1.25 | 1.03 | 1.26 | 1.19 | 0.73 | 0.695 | 0.204
11 | NCI-H2342 | 0.526 | 0.547 | 0.523 | 0.505 | 0.556 | 0.483 | 0.479 | 0.707 | 0.537 | 0.365 |  |  |  |  |  | 0.77 | 0.935 | 0.638
12 | NCI-H358 | 0.148 | 0.152 | 0.141 | 0.137 | 0.119 | 0.545 | 0.465 | 0.476 | 0.431 | 0.358 |  |  |  |  |  | 0.147 | 0.107 | 0.0912
13 | NCI-H522 | 0.96 | 0.795 | 0.876 | 0.985 | 0.741 | 0.753 | 0.876 | 0.738 | 0.92 | 0.699 |  |  |  |  |  | 0.652 | 0.776 | 0.738
14 | NCI-H661 | 0.382 | 0.381 | 0.388 | 0.416 | 0.287 |  |  |  |  |  |  |  |  |  |  | 0.552 | 0.616 | 0.563
15 | Calu-6 |  |  |  |  |  |  |  |  |  |  | 0.785 | 0.834 | 0.819 | 0.961 | 0.768 |  |  | 
16 | NCI-H2228 | 0.891 | 1.09 | 0.874 | 0.805 | 0.664 |  |  |  |  |  | 0.915 | 1.39 | 0.827 | 0.997 | 0.954 | 0.312 | 0.249 | 0.23
17 | NCI-H1703 |  |  |  |  |  | 0.129 |  | 0.159 | 0.132 | 0.134 | 1.01 | 1.04 | 1.02 | 1.14 | 1.02 |  |  | 
18 | SW 1573 | 0.376 | 0.346 | 0.441 | 0.501 | 0.315 |  |  |  |  |  | 0.863 | 1.15 |  | 1.03 | 0.828 | 0.651 | 0.495 | 0.21
19 | SK-MES-1 | 0.301 | 0.33 | 0.341 | 0.305 | 0.316 |  |  |  |  |  | 1.76 | 1.19 | 1.3 | 1.28 | 1.02 | 0.578 | 0.492 | 0.378
20 | NCI-H2023 | 0.42 | 0.342 | 0.457 | 0.416 | 0.361 |  |  |  |  |  | 0.971 | 0.979 | 0.948 | 1.13 | 0.707 | 0.462 | 0.498 | 0.155
21 | EBC-1 |  |  |  |  |  |  |  |  |  |  | 0.402 | 0.426 | 0.317 | 0.472 | 0.298 |  |  | 
22 | NCI-H1648 | 0.243 | 0.273 | 0.256 | 0.27 | 0.211 | 0.643 | 0.601 | 0.676 | 0.638 | 0.625 |  |  |  |  |  | 0.395 | 0.433 | 0.284
